Where two headings read alike, the source gives them in different places.
What was measured:
GPR84 F187A = biological target: T1, GPR84 F187A (Homo sapiens, UniProt Q9NQS5, F187A); test: BRET β-arrestin-1 recruitment assay, HEK293T cells; type: cell-based; conditions: for EC50: F187A, read-out: β-arrestin-1 pEC50 ± SEM (converted)
T1 construct: FLAG (N); eYFP (C); expressed in transfected cells; host or cells: HEK293T, transient
Procedure: (§1) As a control, cells were transfected with 100:1 ratio of empty plasmid and the appropriate arrestin isoform fused to nano-luciferase. After 24 h, cells were seeded at 50,000 cells per well in poly-D-lysine-coated white 96-well plates and incubated at 37°C overnight. After 24 h, cells were washed twice with Hank’s balanced salt solution (HBSS), pH 7.4, and 10 μl/well of the nano-luciferase substrate coelenterazine-h (Nanolight Technologies) was added to a final concentration of 5 μM. Cells were incubated in the dark for 10 min at 37°C, after which 10 μl/well of the agonist compound was added, and the cells were incubated for another 5 minutes. 15 min after coelenterazine-h addition, reading of emission signals were performed on a PHERAstar FS plate reader (BMG Labtech) at 475 and 535 nm, representing nano-luciferase and eYFP emission signals, respectively. The net bioluminescence resonance energy transfer (BRET) ratio (mBRET) was calculated as follows: mBRET=(BRET^sample−BRET^control)*1000whereBRET=Emission^535nm/Emission^475nm

GPR84 L336A = biological target: T2, GPR84 L336A (Homo sapiens, UniProt Q9NQS5, L336A); test: BRET β-arrestin-1 recruitment assay, HEK293T cells; type: cell-based; conditions: for EC50: L336A, read-out: β-arrestin-1 pEC50 ± SEM (converted)
T2 construct: FLAG (N); eYFP (C); expressed in transfected cells; host or cells: HEK293T, transient
Procedure: as §1

GPR84-WT = biological target: T3, GPR84-WT (Homo sapiens, UniProt Q9NQS5); test: BRET β-arrestin-1 recruitment assay, HEK293T cells; type: cell-based; conditions: for Emax: HEK-293T
T3 construct: FLAG (N); eYFP (C); expressed in transfected cells; host or cells: HEK293T, transient
Procedure: as §1

GPR84 S331A = biological target: T4, GPR84 S331A (Homo sapiens, UniProt Q9NQS5, S331A); test: BRET β-arrestin-1 recruitment assay, HEK293T cells; type: cell-based; conditions: for Emax: HEK-293T
T4 construct: FLAG (N); eYFP (C); expressed in transfected cells; host or cells: HEK293T, transient
Procedure: as §1

GPR84 Y332F = biological target: T5, GPR84 Y332F (Homo sapiens, UniProt Q9NQS5, Y332F); test: BRET β-arrestin-1 recruitment assay, HEK293T cells; type: cell-based
T5 construct: FLAG (N); Gαi2-Cys352Ile (fusion partner) (C); expressed in transfected cells
Procedure: as §1

GPR84 (wild type) = biological target: T6, GPR84 (wild type) (Homo sapiens, UniProt Q9NQS5); test: Competition binding assay with orthosteric antagonist [3H]140
T6 construct: expressed in transfected cells; host or cells: Flp-In T-REx 293 cells (membranes, doxycycline-induced)
Procedure: (§2) Binding was initiated by the addition of 5 μg membrane protein generated from Flp-In™ T-REx™ cells induced to express the receptor construct of interest with 100 ng/ml doxycycline. Nonspecific binding of the radioligand was determined in the presence of 10 μM compound 837. All assays were performed at 25 °C for 1 h before termination by the addition of ice-cold phosphate-buffered saline (PBS) and vacuum filtration through GF/C glassfibre filter-bottom 96-well microplates using a UniFilter FilterMate Harvester (Revvity). Each well was washed three times with ice-cold PBS and filters were allowed to dry for 2–3 h before addition of 50 μl of Ultima Gold™ XR. Radioactivity was quantified by liquid scintillation spectrometry.

GPR84 = GPR84 (Homo sapiens, UniProt Q9NQS5); test: Competition binding kinetics of [3H]140 (on and off rates of unlabeled ligands); parameters: expressed in transfected cells; host or cells: membranes; conditions: for Kd: read-out: Koff/Kon
Procedure: The kinetic binding parameters of unlabeled ligands were determined through assessment of the binding kinetics of [^3H]140.[21] […] At the indicated time points, membrane protein was added, and tubes were gently agitated. Three different concentrations of competitor were assessed to ensure that the rate parameters calculated were independent of ligand concentration.

Leu336Ala GPR84 = biological target: T7, Leu336Ala GPR84 (Homo sapiens, UniProt Q9NQS5, L336A); test: pThr263/pThr264 immunoblot of immunoprecipitated GPR84-eYFP; type: cell-based; conditions: 1 μM
T7 construct: expressed in transfected cells
Procedure: (§3) eYFP-linked receptor constructs were immunoprecipitated from 200 μl cell lysates using GFP-Trap® agarose beads (Proteintech) according to manufacturer’s instructions. Immunocomplexes were washed three times in washing buffer, resuspended in 100 μl 2 × SDS-PAGE sample buffer and incubated at 60 °C for 10 min. Following centrifugation at 2500g for 5 min, 20 μl of immunoprecipitated proteins was resolved by SDS-PAGE on 4% to 12% BisTris gels. After separation, the proteins were transferred electrophoretically onto nitrocellulose membrane, which was then blocked using 5% bovine serum albumin (BSA) in Tris-buffered saline (TBS, 50 mM Tris-Cl, 150 mM NaCl, pH 7.6) for 1 h at room temperature on an orbital shaker. The membrane was then incubated with appropriate primary antibody in 5% BSA in TBS supplemented with 0.1% Tween (TBS-T) overnight at 4 °C. Anti-pThr^263/pThr^264 antiserum was diluted 1:2000 and anti-GFP was diluted 1:10,000. Subsequently, the membrane was washed (3 × 10 min with TBS-T) and incubated for 2 h with anti-rabbit secondary antibody diluted 1:10,000 in 5% BSA in TBS-T. After washing (3 × 10 min with TBS-T), proteins were detected using an Odyssey imaging system (Licor) according to the manufacturer’s instructions.

Phe187Ala GPR84 = biological target: T8, Phe187Ala GPR84 (Homo sapiens, UniProt Q9NQS5, F187A); test: as above; type: cell-based; conditions: 1 μM, compared to OX04954 and OX04539
T8 construct: expressed in transfected cells
Procedure: as §3

[1] = biological target: Leu336Ala GPR84 (GPR84-Gi2 fusion protein) (Homo sapiens, UniProt Q9NQS5, L336A); test: Competition binding assay with orthosteric antagonist [3H]140
Procedure: as §2

[2] = pKa measurement (Sirius T3 UV-metric and pH-metric titration); type: physicochemical; conditions: 25 °C, ionic strength 0.15 M; read-out: measured pKa of the hydroxyl group
Procedure: OX04529 pKa was determined using a UV-metric titration method on a Sirius T3 with a combination Ag/AgCl pH electrode. 5 μL of OX04529 stock solution was added to 25 μL of a neutral linear buffer. The sample was then pre-acidified to pH < 2.0 using 0.5 M HCl and titrated three times until pH > 12.0 using 0.5 M KOH. Titrations were carried out at a constant ionic strength of 0.15 M (adjusted with KCl) and maintained at 25.0 ±0.5 °C. UV absorbance data across varying wavelengths and pH values were recorded. Molar absorption profiles and species distribution plots were generated in the Sirius T3 software, from which apparent pKa value was calculated.
OX04529 pKa was measured using pH-metric titration on the Sirius T3 system. The solution was pre-acidified to pH < 3.0 with 0.5 M HCl and titrated three times until pH > 11.0 using 0.5 M KOH.

[3] = Extended Data Table 4, read-out: β-arrestin-1 pEC50 ± SEM (converted)
[4] = β-arrestin-1 recruitment, Extended Data Table 6
[5] = competition with [3H]140, Fig. 1f, read-out: pKi (converted)

| Structure (SMILES) | EC50 (GPR84 F187A) | EC50 (GPR84 L336A) | EC50 (GPR84-WT; [3]) | Emax (GPR84-WT; [4]) | EC50 (GPR84 S331A) | Emax (GPR84 S331A) | Ki (GPR84 (wild type); [5]) | Kd (GPR84; Fig. 1g) | further results |
| --- | --- | --- | --- | --- | --- | --- | --- | --- | --- |
| Cc1cc(CCCc2cc(O)c[n+]([O-])c2)ccc1Cl [OX04954] | 5.75 nM | 2.14 nM | 39.8 nM | 71 ± 4% | 30.9 nM | 66 ± 7% | 6.76 nM | 1.83 ± 0.31 nM | EC50 (GPR84-WT; β-arrestin-1 recruitment, Extended Data Table 6, read-out: pEC50 ± SEM (converted)): 31.6 nM; EC50 (GPR84 Y332F): 50.1 nM; Emax (GPR84 Y332F; HEK-293T): 40 ± 4%; koff (GPR84; Fig. 1g, read-out: Koff (converted)): 0.000429 s⁻¹; kon (GPR84; Fig. 1g, read-out: Kon (converted)): 254000 M⁻¹ s⁻¹ |
| [O-][n+]1cc(O)cc(CCc2ccc(Cl)c(C(F)(F)F)c2)c1 [OX04529] | 3.8 nM | 1.86 nM | 49 nM | 18 ± 4% | 28.8 nM | 24 ± 6% | 10.2 nM | 1.54 ± 0.2 nM | phosphorylation of Thr263 and Thr264 (immunoblot) (Leu336Ala GPR84): full agonist; phosphorylation of Thr263 and Thr264 (immunoblot) (Phe187Ala GPR84): partial effect; efficacy in promoting interaction with β-arrestin-1 (GPR84 F187A; Phe187Ala GPR84, HEK293T): substantial efficacy; efficacy in promoting interaction with β-arrestin-1 (GPR84 L336A; Leu336Ala GPR84, HEK293T): full agonist; pEC50 ± SEM (GPR84-WT; [4]): 7.10 ± 10.11; Ki (GPR84 (wild type); GPR84-Gi2 fusion protein stable cell line, Extended Data Fig. 7, read-out: pKi (WT) (converted)): 51.3 nM; Ki [1]: 1.51 nM; koff (GPR84): 0.000649 s⁻¹; kon (GPR84): 443000 M⁻¹ s⁻¹; pKa [2]: 6.26 |

From article doi:10.1101/2025.07.30.667614, “Steric control of signaling bias in the immunometabolic receptor GPR84” (bioRxiv, 2025)
